{"source": "patent US10695437B2", "about": "“Polycomplexes of poly-lysine compounds for preventing and/or combatting amyotrophic lateral sclerosis” (GEMAC, priority 2016, dated 2020)", "origin": "cited, not measured here", "tested_on": "ALS", "conditions": "ALS patients"}
{"smiles": "Nc1nc2ccc(OC(F)(F)F)cc2s1", "note": "[Riluzole]", "values": [{"measurement": "Side effects", "result": "numerous side effects (liver toxicity)"}]}
